Measurements published in the NIST ThermoML archive (doi:10.1016/j.jct.2017.02.009).
± gives the expanded uncertainty stated by the source.

Experiment: xn = mol fraction of the nth substance listed
Conditions: 100 kPa, Liquid; for mass density: Vibrating tube method; for viscosity: Capillary tube (Ostwald / Ubbelohde) method

O=C1CCCO1 [γ-butyrolactone] + C[S+](C)[O-]
Conditions | mass density, 293.15 K [kg/m3] | mass density, 298.15 K [kg/m3] | mass density, 303.15 K [kg/m3] | mass density, 313.15 K [kg/m3] | viscosity, 298.15 K [mPa·s]
x2 = 0 | 1129.4 ± 1 | 1124.5 ± 1 | 1119.6 ± 1 | 1109.8 ± 1 | 1.72 ± 0.024
x2 = 0.051 | 1127.5 ± 1.1 | 1122.6 ± 1.1 | 1117.7 ± 1.1 | 1107.9 ± 1.1 | –
x2 = 0.098 | 1125.9 ± 1.1 | 1121 ± 1.1 | 1116.1 ± 1.1 | 1106.3 ± 1.1 | 1.724 ± 0.024
x2 = 0.152 | 1124 ± 1.1 | 1119.1 ± 1.1 | 1114.2 ± 1.1 | 1104.4 ± 1.1 | –
x2 = 0.221 | 1121.7 ± 1.1 | 1116.8 ± 1.1 | 1111.9 ± 1.1 | 1102.1 ± 1.1 | 1.724 ± 0.024
x2 = 0.251 | 1120.7 ± 1.1 | 1115.7 ± 1.1 | 1110.8 ± 1.1 | 1101 ± 1 | –
x2 = 0.298 | 1119.1 ± 1.1 | 1114.2 ± 1.1 | 1109.3 ± 1.1 | 1099.5 ± 1 | 1.724 ± 0.024
x2 = 0.352 | 1117.4 ± 1.1 | 1112.5 ± 1.1 | 1107.6 ± 1.1 | 1097.8 ± 1 | –
x2 = 0.398 | 1116 ± 1.1 | 1111 ± 1.1 | 1106.1 ± 1 | 1096.3 ± 1 | 1.739 ± 0.024
x2 = 0.447 | 1114.5 ± 1.1 | 1109.6 ± 1 | 1104.7 ± 1 | 1094.8 ± 1 | –
x2 = 0.498 | 1113 ± 1 | 1108 ± 1 | 1103.1 ± 1 | 1093.3 ± 1 | 1.763 ± 0.024
x2 = 0.546 | 1111.6 ± 1 | 1106.6 ± 1 | 1101.7 ± 1 | 1091.9 ± 1 | –
x2 = 0.596 | 1110.2 ± 1 | 1105.2 ± 1 | 1100.3 ± 1 | 1090.4 ± 1 | 1.791 ± 0.024
x2 = 0.648 | 1108.7 ± 1 | 1103.8 ± 1 | 1098.8 ± 1 | 1089 ± 1 | –
x2 = 0.7 | 1107.4 ± 1 | 1102.4 ± 1 | 1097.4 ± 1 | 1087.6 ± 1 | 1.839 ± 0.024
x2 = 0.742 | 1106.3 ± 1 | 1101.3 ± 1 | 1096.4 ± 1 | 1086.4 ± 1 | –
x2 = 0.797 | 1104.9 ± 1 | 1099.9 ± 1 | 1094.9 ± 1 | 1085 ± 1 | 1.883 ± 0.025
x2 = 0.848 | 1103.6 ± 1 | 1098.7 ± 1 | 1093.7 ± 1 | 1083.7 ± 1 | –
x2 = 0.9 | 1102.4 ± 1 | 1097.4 ± 1 | 1092.4 ± 1 | 1082.5 ± 1 | 1.921 ± 0.025
x2 = 0.95 | 1101.3 ± 1 | 1096.3 ± 1 | 1091.3 ± 1 | 1081.3 ± 1 | –
